According to ChEMBL document CHEMBL1201862, “PubChem BioAssay data set” (2004):
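Step 1: Grow cells in 96-well plates. Step 2: Expose to compound for 48 hours at 5 concentrations. Step 3: Interpolate endpoints linearly; if unreached, use highest concentration. GI50 = concentration required for 50% inhibition of growth.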 The source made the active and inactive calls. Rule as the data show it: active = GI50 up to about 1.1 µM and inactive = higher.

Experiments:
Assay in all cases: DTP human tumour cell line panel, 48 h
[1] = system: CAKI-1
[2] = system: SN12C
[3] = system: NCI-H522
[4] = system: RPMI-8226
[5] = system: HL-60
[6] = system: DMS-114
[7] = system: CCRF-CEM
[8] = system: LOX IMVI
[9] = system: A498
[10] = system: NCI-H460
[11] = system: SNB-19
[12] = system: HT-29
[13] = system: SW-620
[14] = system: SF-539
[15] = system: KM12
[16] = system: OVCAR-3
[17] = system: HCT-116
[18] = system: EKVX
[19] = system: SF-268
[20] = system: MOLT-4
[21] = system: U-251
[22] = system: OVCAR-5
[23] = system: SK-MEL-5
[24] = system: NCI-H226
[25] = system: SF-295
[26] = system: SK-OV-3
[27] = system: OVCAR-4
[28] = system: M19-MEL
[29] = system: IGROV-1
[30] = system: HOP-62
[31] = system: NCI-H23
[32] = system: UACC-62
[33] = system: K562
[34] = system: Malme-3M
[35] = system: OVCAR-8
[36] = system: UACC-257
[37] = system: SK-MEL-28
[38] = system: DLD-1
[39] = system: HCC 2998
[40] = system: COLO 205
[41] = system: HOP-92
[42] = system: RXF 393
[43] = system: SNB-78
[44] = system: A549
[45] = system: SNB-75
[46] = system: SK-MEL-2
[47] = system: NCI/ADR-RES
[48] = system: DMS-273
[49] = system: KM-20L2
[50] = system: HOP-18
[51] = system: UO-31
[52] = system: MCF7
[53] = system: HCT-15
[54] = system: TK-10
[55] = system: XF498
[56] = system: ACHN
[57] = system: 786-0
[58] = system: M14
[59] = system: LXFL 529

For `CN1CCC23c4ccccc4NC1C21CCN(C)C3Nc2ccccc21`, the GI50 [1] was 75.5 µM (inactive), the GI50 [2] was > 375 µM (inactive) and the GI50 [3] was > 375 µM (inactive). The GI50 [4] was 157 µM (inactive), the GI50 [5] was 59.7 µM (inactive) and the GI50 [6] was > 375 µM (inactive). The GI50 [7] was 137 µM (inactive), the GI50 [8] was > 375 µM (inactive) and the GI50 [9] was > 218 µM (inactive). For the same compound, the GI50 [10] was > 375 µM (inactive), the GI50 [11] was > 375 µM (inactive) and the GI50 [12] was > 375 µM (inactive). For the same compound, the GI50 [13] was > 375 µM (inactive), the GI50 [14] was > 355 µM (inactive) and the GI50 [15] was 268 µM (inactive). The GI50 [16] was > 375 µM (inactive), the GI50 [17] was 356 µM (inactive) and the GI50 [18] was > 294 µM (inactive). For the same compound, the GI50 [19] was 102 µM (inactive), the GI50 [20] was 151 µM (inactive) and the GI50 [21] was > 375 µM (inactive). The GI50 [22] was > 375 µM (inactive), the GI50 [23] was > 174 µM (inactive) and the GI50 [24] was 206 µM (inactive). The GI50 [25] was > 375 µM (inactive), the GI50 [26] was > 375 µM (inactive) and the GI50 [27] was > 375 µM (inactive). The GI50 [28] was > 375 µM (inactive), the GI50 [29] was > 375 µM (inactive) and the GI50 [30] was > 375 µM (inactive). The GI50 [31] was > 375 µM (inactive), the GI50 [32] was > 375 µM (inactive) and the GI50 [33] was 130 µM (inactive). For the same compound, the GI50 [34] was 249 µM (inactive), the GI50 [35] was 59.4 µM (inactive) and the GI50 [36] was 93.3 µM (inactive). For the same compound, the GI50 [37] was > 375 µM (inactive), the GI50 [38] was > 375 µM (inactive) and the GI50 [39] was > 375 µM (inactive). The GI50 [40] was > 338 µM (inactive), the GI50 [41] was 94.6 µM (inactive) and the GI50 [42] was 152 µM (inactive). For the same compound, the GI50 [43] was 151 µM (inactive), the GI50 [44] was > 375 µM (inactive) and the GI50 [45] was > 303 µM (inactive). The GI50 [46] was > 375 µM (inactive), the GI50 [47] was > 375 µM (inactive) and the GI50 [48] was > 375 µM (inactive). For the same compound, the GI50 [49] was > 239 µM (inactive), the GI50 [50] was 343 µM (inactive) and the GI50 [51] was > 301 µM (inactive). For the same compound, the GI50 [52] was > 375 µM (inactive) and the GI50 [53] was greater than 375 µM.
For `COc1ccc2oc(-c3ccc(OC)c(OC)c3OC)cc(=O)c2c1`, the GI50 [1] was 53 µM (inactive), the GI50 [2] was 53.3 µM (inactive) and the GI50 [3] was 18.8 µM (inactive). For the same compound, the GI50 [54] was 36.3 µM (inactive), the GI50 [4] was 17 µM (inactive) and the GI50 [55] was 39.7 µM (inactive). The GI50 [5] was 18.6 µM (inactive), the GI50 [6] was 31.8 µM (inactive) and the GI50 [7] was 35.2 µM (inactive). The GI50 [8] was 46.8 µM (inactive), the GI50 [11] was 18.9 µM (inactive) and the GI50 [56] was 61.8 µM (inactive). For the same compound, the GI50 [12] was 48.2 µM (inactive), the GI50 [13] was 65.2 µM (inactive) and the GI50 [14] was 31.2 µM (inactive). For the same compound, the GI50 [16] was 34.7 µM (inactive), the GI50 [17] was 34.6 µM (inactive) and the GI50 [18] was 33.1 µM (inactive). For the same compound, the GI50 [19] was 36.4 µM (inactive), the GI50 [22] was 28.4 µM (inactive) and the GI50 [24] was 10.5 µM (inactive). The GI50 [25] was 51.6 µM (inactive), the GI50 [57] was 72.4 µM (inactive) and the GI50 [26] was > 100 µM (inactive). For the same compound, the GI50 [27] was 38.7 µM (inactive), the GI50 [28] was 57 µM (inactive) and the GI50 [58] was 55.3 µM (inactive). For the same compound, the GI50 [29] was 83.9 µM (inactive), the GI50 [30] was 70.3 µM (inactive) and the GI50 [31] was 43.3 µM (inactive). The GI50 [59] was 39.4 µM (inactive), the GI50 [32] was 55.2 µM (inactive) and the GI50 [33] was 40.6 µM (inactive). For the same compound, the GI50 [34] was 40.7 µM (inactive), the GI50 [36] was 55.6 µM (inactive) and the GI50 [37] was 62.2 µM (inactive). For the same compound, the GI50 [38] was 49.7 µM (inactive), the GI50 [39] was 52.7 µM (inactive) and the GI50 [40] was 52 µM (inactive). The GI50 [41] was 50.6 µM (inactive), the GI50 [42] was 22.4 µM (inactive) and the GI50 [44] was 36.6 µM (inactive). For the same compound, the GI50 [45] was 48.3 µM (inactive), the GI50 [46] was 22.9 µM (inactive) and the GI50 [49] was 24 µM (inactive).
